The text below walks through data of patent publication US20240360157A1, “TYK2 INHIBITORS” (BIOGEN MA INC., priority 2021, published 2024).

Format in all cases: biochemical
The target in assay [1] is human JAK2 catalytic kinase (JH1) domain (Homo sapiens (Human), UniProt O60674). Put plainly: ADP-Glo Kinase Assay, recombinant JAK2 catalytic kinase (JH1) domain. The conditions noted are these: recombinant JH1 domain 0.2 nM, 15 μM ATP, JAK3-974 peptide, mean, read-out: JAK2 biochem IC50 (nM) Mean. Summed up: (§1)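 Reactions ran 100 min with 50 μM substrate peptide (JAK3-342 for JAK1 at 4 nM enzyme; JAK3-974 for JAK2 0.2 nM, JAK3 0.3 nM, TYK2 2 nM), and ADP formed was read by ADP-Glo luminescence. Eleven-point 3-fold series from 10 or 1 μM; IC50 fitted by 4-parameter logistic model.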
human JAK2 catalytic kinase (JH1) domain, sequence (O60674 849-1124): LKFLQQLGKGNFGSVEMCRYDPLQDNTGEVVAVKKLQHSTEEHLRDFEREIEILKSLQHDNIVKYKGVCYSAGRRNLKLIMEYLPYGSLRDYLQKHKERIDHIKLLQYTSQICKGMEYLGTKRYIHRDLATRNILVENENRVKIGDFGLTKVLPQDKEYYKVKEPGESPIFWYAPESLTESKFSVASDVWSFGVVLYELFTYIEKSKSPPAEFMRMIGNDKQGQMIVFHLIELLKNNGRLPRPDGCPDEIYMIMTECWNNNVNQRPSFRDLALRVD
Background: ADP-Glo turns the ADP formed in a reaction into a luminescent signal.

For assay [2], the target named is human JAK3 catalytic kinase (JH1) domain (Homo sapiens (Human), UniProt P52333). The assay can be described thus: ADP-Glo Kinase Assay, recombinant JAK3 catalytic kinase (JH1) domain. As to conditions: recombinant JH1 domain 0.3 nM, 4 μM ATP, JAK3-974 peptide, mean, read-out: JAK3 biochem IC50 (nM) Mean. The essentials: as §1
human JAK3 catalytic kinase (JH1) domain, sequence (P52333 822-1111): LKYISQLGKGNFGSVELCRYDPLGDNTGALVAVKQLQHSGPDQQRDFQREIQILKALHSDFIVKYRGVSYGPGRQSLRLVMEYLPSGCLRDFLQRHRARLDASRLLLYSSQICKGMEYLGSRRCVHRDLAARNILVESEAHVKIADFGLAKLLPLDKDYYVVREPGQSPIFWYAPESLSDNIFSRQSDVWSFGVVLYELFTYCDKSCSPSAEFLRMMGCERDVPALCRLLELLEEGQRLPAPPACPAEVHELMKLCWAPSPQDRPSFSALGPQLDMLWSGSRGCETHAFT
The target in assay [3] is human JAK1 catalytic kinase (JH1) domain (Homo sapiens (Human), UniProt P23458). Put plainly: ADP-Glo Kinase Assay, recombinant JAK1 catalytic kinase (JH1) domain. As to conditions: recombinant JH1 domain 4 nM, 35 μM ATP, JAK3-342 peptide, mean, read-out: JAK1 biochem IC50 (nM) Mean. Summed up: as §1
human JAK1 catalytic kinase (JH1) domain, sequence (P23458 875-1153): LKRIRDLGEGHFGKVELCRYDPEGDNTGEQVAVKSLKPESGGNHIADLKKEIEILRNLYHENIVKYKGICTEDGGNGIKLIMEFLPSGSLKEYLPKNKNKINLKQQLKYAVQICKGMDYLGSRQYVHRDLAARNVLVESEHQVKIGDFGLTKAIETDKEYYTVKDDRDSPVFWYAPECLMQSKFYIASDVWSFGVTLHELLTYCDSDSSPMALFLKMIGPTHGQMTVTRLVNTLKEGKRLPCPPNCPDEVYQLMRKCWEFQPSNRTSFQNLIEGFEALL
The target of assay [4] is human TYK2 catalytic kinase (JH1) domain (Homo sapiens (Human), UniProt P29597). Put plainly: ADP-Glo Kinase Assay, recombinant TYK2 catalytic kinase (JH1) domain. As to conditions: recombinant JH1 domain 2 nM, 10 μM ATP, JAK3-974 peptide, mean, read-out: TYK2 biochem IC50 (nM) Mean. Summed up: as §1
human TYK2 catalytic kinase (JH1) domain, sequence (P29597 897-1176): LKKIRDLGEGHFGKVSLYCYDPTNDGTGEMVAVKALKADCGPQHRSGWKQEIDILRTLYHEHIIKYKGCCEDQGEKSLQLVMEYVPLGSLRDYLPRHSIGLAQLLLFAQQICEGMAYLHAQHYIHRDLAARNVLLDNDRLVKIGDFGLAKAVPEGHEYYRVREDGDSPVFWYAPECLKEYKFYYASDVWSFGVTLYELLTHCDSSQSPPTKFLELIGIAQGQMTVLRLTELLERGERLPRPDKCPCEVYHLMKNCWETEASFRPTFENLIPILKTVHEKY

Usually IC50 stands for the concentration needed to halve the response being measured. As for `O=C([C@@H]1C[C@H]1F)N1C2CCC1CN(c1ncnc3[nH]c(-c4ccnc(C(F)(F)F)c4)cc13)C2` [Example 223, ((1S,2R)-2-fluorocyclopropyl)(3-(6-(2-(trifluoromethyl)pyridin-4-yl)-7H-pyrrolo[2,3-d]pyrimidin-4-yl)-3,8-diazabicyclo[3.2.1]octan-8-yl)methanone], the IC50 in assay [1] is 352 nM; in assay [2], 1620 nM; in assay [3] it was 308 nM; in assay [4] it was 23.9 nM.
The matching figures for `Cc1ccc(-c2cc3c(N4CC5CCC(C4)N5C(=O)[C@@H]4C[C@H]4F)ncnc3[nH]2)cn1` [Example 224, ((1S,2R)-2-fluorocyclopropyl)(3-(6-(6-methylpyridin-3-yl)-7H-pyrrolo[2,3-d]pyrimidin-4-yl)-3,8-diazabicyclo[3.2.1]octan-8-yl)methanone]: 462 nM, 1100 nM, 234 nM and 19.2 nM.
The like results for `COc1ccc(-c2cc3c(N4CC5CCC(C4)N5C(=O)[C@@H]4C[C@H]4F)ncnc3[nH]2)cn1` [Example 225, ((1S,2R)-2-fluorocyclopropyl)(3-(6-(6-methoxypyridin-3-yl)-7H-pyrrolo[2,3-d]pyrimidin-4-yl)-3,8-diazabicyclo[3.2.1]octan-8-yl)methanone] were, in that order, 357 nM, 735 nM, 245 nM and 21.3 nM.
The like results for `CN(C)c1ccc(-c2cc3c(N4CC5CCC(C4)N5C(=O)[C@@H]4C[C@H]4F)ncnc3[nH]2)cn1` [Example 226, (3-(6-(6-(dimethylamino)pyridin-3-yl)-7H-pyrrolo[2,3-d]pyrimidin-4-yl)-3,8-diazabicyclo[3.2.1]octan-8-yl)((1S,2R)-2-fluorocyclopropyl)methanone] were, in that order, 244 nM, 468 nM, 116 nM and 14.9 nM.
As for `N#Cc1ccc(-c2cc3c(N4CC5CCC(C4)N5C(=O)[C@@H]4C[C@H]4F)ncnc3[nH]2)cn1` [Example 227, 5-(4-(8-((1S,2R)-2-fluorocyclopropane-1-carbonyl)-3,8-diazabicyclo[3.2.1]octan-3-yl)-7H-pyrrolo[2,3-d]pyrimidin-6-yl)picolinonitrile], the half-inhibitory concentration (IC50) in assay [1] was found to be 418 nM; in assay [2], 1590 nM; in assay [3], 268 nM; in assay [4], 31.6 nM.
The like results for `O=C([C@@H]1C[C@H]1F)N1C2CCC1CN(c1ncnc3[nH]c(-c4ccc(C(F)(F)F)nc4)cc13)C2` [Example 228, ((1S,2R)-2-fluorocyclopropyl)(3-(6-(6-(trifluoromethyl)pyridin-3-yl)-7H-pyrrolo[2,3-d]pyrimidin-4-yl)-3,8-diazabicyclo[3.2.1]octan-8-yl)methanone] were, in that order, 813 nM, 7440 nM, 315 nM and 41.2 nM.
Regarding `O=C(C1C[C@H]1F)N1C2CCC1CN(c1ncnc3[nH]c(-c4cncc(F)c4)cc13)C2` (stereo partly shown) [Example 229], the IC50 in assay [1] amounted to 1740 nM; in assay [2] it was 10000 nM; in assay [3] it was 1240 nM; in assay [4], 122 nM.
Take `Cc1cc(-c2cc3c(N4CC5CCC(C4)N5C(=O)[C@@H]4C[C@H]4F)ncnc3[nH]2)ccn1` [Example 230, ((1S,2R)-2-fluorocyclopropyl)(3-(6-(2-methylpyridin-4-yl)-7H-pyrrolo[2,3-d]pyrimidin-4-yl)-3,8-diazabicyclo[3.2.1]octan-8-yl)methanone]: the IC50 was found to be 218 nM in assay [1], 742 nM in assay [2], 91 nM in assay [3] and 8.2 nM in assay [4].
For `COc1cc(-c2cc3c(N4CC5CCC(C4)N5C(=O)[C@@H]4C[C@H]4F)ncnc3[nH]2)ccn1` [Example 231, ((1S,2R)-2-fluorocyclopropyl)(3-(6-(2-methoxypyridin-4-yl)-7H-pyrrolo[2,3-d]pyrimidin-4-yl)-3,8-diazabicyclo[3.2.1]octan-8-yl)methanone], the IC50 in assay [1] is 307 nM; in assay [2], 877 nM; in assay [3] it was 115 nM; in assay [4] it was 12.4 nM.
For `O=C(C1C[C@H]1F)N1C2CCC1CN(c1ncnc3[nH]c(-c4ccncc4F)cc13)C2` (stereo partly shown) [Example 232], the IC50 in assay [1] is 322 nM; in assay [2] it was 848 nM; in assay [3], 226 nM; in assay [4] it was 13.1 nM.
The like results for `N#Cc1cc(-c2cc3c(N4CC5CCC(C4)N5C(=O)[C@@H]4C[C@H]4F)ncnc3[nH]2)ccn1` [Example 233, 4-(4-(8-((1S,2R)-2-fluorocyclopropane-1-carbonyl)-3,8-diazabicyclo[3.2.1]octan-3-yl)-7H-pyrrolo[2,3-d]pyrimidin-6-yl)picolinonitrile] were, in that order, 248 nM, 3240 nM, 174 nM and 15.4 nM.
As for `O=C([C@@H]1C[C@H]1F)N1C2CCC1CN(c1ncnc3[nH]c(-c4ccnnc4)cc13)C2` [Example 234, ((1S,2R)-2-fluorocyclopropyl)(3-(6-(pyridazin-4-yl)-7H-pyrrolo[2,3-d]pyrimidin-4-yl)-3,8-diazabicyclo[3.2.1]octan-8-yl)methanone], the IC50 was 598 nM in assay [1], 3200 nM in assay [2], 388 nM in assay [3] and 28.6 nM in assay [4].
The like results for `Cn1cc(-c2cc3c(N4CC5CCC(C4)N5C(=O)[C@@H]4C[C@H]4F)ncnc3[nH]2)cn1` [Example 235, ((1S,2R)-2-fluorocyclopropyl)(3-(6-(1-methyl-1H-pyrazol-4-yl)-7H-pyrrolo[2,3-d]pyrimidin-4-yl)-3,8-diazabicyclo[3.2.1]octan-8-yl)methanone] were, in that order, 106 nM, 338 nM, 117 nM and 5.3 nM.
The like results for `Cn1cc(-c2cc3c(N4CC5CCC(C4)N5C(=O)C4CC4)ccnc3[nH]2)cn1` [Example 236, cyclopropyl(3-(2-(1-methyl-1H-pyrazol-4-yl)-1H-pyrrolo[2,3-b]pyridin-4-yl)-3,8-diazabicyclo[3.2.1]octan-8-yl)methanone] were, in that order, 99 nM, 253 nM, 145 nM and 3.8 nM.
As for `O=C(C1CC1)N1C2CCC1CN(c1ccnc3[nH]c(-c4cnn(C(F)F)c4)cc13)C2` [Example 237, cyclopropyl(3-(2-(1-(difluoromethyl)-1H-pyrazol-4-yl)-1H-pyrrolo[2,3-b]pyridin-4-yl)-3,8-diazabicyclo[3.2.1]octan-8-yl)methanone], the IC50 in assay [1] worked out at 39 nM; in assay [2] it was 183 nM; in assay [3] it was 50 nM; in assay [4], 1.1 nM.
The matching figures for `Cn1cc(-c2cc3c(N4CC5CCC(C4)N5C(=O)[C@@H]4C[C@H]4F)ccnc3[nH]2)cn1` [Example 238, ((1S,2R)-2-fluorocyclopropyl)(3-(2-(1-methyl-1H-pyrazol-4-yl)-1H-pyrrolo[2,3-b]pyridin-4-yl)-3,8-diazabicyclo[3.2.1]octan-8-yl)methanone]: 6 nM, 61 nM, 10 nM and 0.1 nM.
